Laboratory results as given in BigSolDB 2.1.

C[C@H]1[C@H](C)CC[C@]2(C(=O)O)CC[C@]3(C)C(=CC[C@@H]4[C@@]5(C)CC[C@H](O)C(C)(C)[C@@H]5CC[C@]43C)[C@H]12
solubility (mole fraction)
Settings	293.6 K	300.1 K	305.2 K	310 K	320.1 K	323.2 K	329.7 K
in ethanol	0.000514	0.000766	0.000735	0.000761	0.00105	0.00105	0.00116
in ethyl acetate	0.000777	0.000771	0.00101	0.00113	0.00155	0.00162	0.00186
in isopropanol	0.00144	0.00181	0.00197	0.00213	0.00273	0.00275	0.00295
in methanol	0.000723	0.000851	0.000931	0.00102	0.00133	0.00132	0.00146
